In patent publication US4716175A, “Saturated fatty acid amides as inhibitors of acyl-CoA:cholesterol acyltransferase” (Warner-Lambert Company, priority 1987, dated 1987):
pIC50: −log10 of the molar value.

Target: T1, acyl-CoA:cholesterol acyltransferase (ACAT) (Oryctolagus cuniculus, UniProt G1SFD9)
T1 construct: tissue preparation containing rabbit intestinal microsomes; from tissue; host or cells: rabbit intestinal microsomes
T1 sequence (G1SFD9 1-524): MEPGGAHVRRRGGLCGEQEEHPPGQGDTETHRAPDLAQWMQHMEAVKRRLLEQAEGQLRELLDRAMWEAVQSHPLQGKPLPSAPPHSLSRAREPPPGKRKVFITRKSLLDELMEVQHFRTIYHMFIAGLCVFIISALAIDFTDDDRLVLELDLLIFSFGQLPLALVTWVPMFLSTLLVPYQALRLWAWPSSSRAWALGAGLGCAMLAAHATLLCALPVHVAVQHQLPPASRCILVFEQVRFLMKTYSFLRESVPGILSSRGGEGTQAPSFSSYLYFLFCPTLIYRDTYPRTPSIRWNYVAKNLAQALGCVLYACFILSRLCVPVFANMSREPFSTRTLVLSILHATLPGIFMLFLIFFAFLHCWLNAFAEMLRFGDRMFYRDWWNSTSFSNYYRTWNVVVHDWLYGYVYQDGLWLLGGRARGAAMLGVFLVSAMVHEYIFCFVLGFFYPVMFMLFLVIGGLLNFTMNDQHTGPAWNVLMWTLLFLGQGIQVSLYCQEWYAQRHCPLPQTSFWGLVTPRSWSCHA
Assay: in vitro inhibition of ACAT (cholesterol esterification by radio-labeled oleic acid, rabbit intestinal microsomes)
Format: biochemical
Settings: not given
Source text: The test assesses the ability of a compound to inhibit the acylation of cholesterol by oleic acid by measuring the amount of radio-labeled cholesterol oleate formed from radio-labeled oleic acid in a tissue preparation containing rabbit intestinal microsomes.

In order of rising pIC50:
1. CCCCCCCCCCC(Cc1ccccc1)C(=O)NC(C)c1ccccn1 (stereo not drawn) [α-Decyl-N-[1-(2-pyridinyl)ethyl]benzenepropanamide]  5.15
2. CCCCCCCCCCC(CCC)C(=O)NC(C)c1ccccn1 (centres unmarked) [2-Propyl-N-[1-(2-pyridinyl)ethyl]dodecanamide]  5.43
3. CCCCCCCCCCC(C)C(=O)NC(C)c1ccccn1 (centres unmarked) [2-Methyl-N-[1-(2-pyridinyl)ethyl]dodecanamide]  5.48
4. CCCCCCCCCCC(CC)C(=O)NC(C)c1ccccn1 (centres unmarked) [2-Ethyl-N-[1-(2-pyridinyl)ethyl]dodecanamide]  5.80
5. CCCCCCCCCCCCCCC(C)C(=O)NC(C)c1ccccn1 (centres unmarked) [2-methyl-N-[1-(2-pyridinyl)ethyl]hexadecanamide]  5.85
6. CCCCCCCCCCCCC(C)(C)C(=O)Nc1c(OC)ncnc1OC [N-(4,6-dimethoxy-5-pyrimidinyl)-2,2-dimethyltetradecanamide]  5.89
7. CCCCCCCCCCCCC(C)C(=O)NC(C)c1ccccn1 (centres unmarked) [2-Methyl-N-[1-(2-pyridinyl)ethyl]tetradecanamide]  6.10
8. CCCCCCCC/C=C\CCCCCCCCC(C)(C)C(=O)Nc1c(OC)ncnc1OC [(Z)-N-(4,6-dimethoxy-5-pyrimidinyl)-2,2-dimethyl-11-eicosenamide]  6.11
9. CCCCCCCCCCCCCCC(C)(C)C(=O)NC(C)c1ccccn1 (centres unmarked) [2,2-Dimethyl-N-[1-(2-pyridinyl)ethyl]hexadecanamide]  6.15
10. CCCCCCCCCCCCC(CC)C(=O)NC(C)c1ccccn1 (centres unmarked) [2-ethyl-N-[1-(2-pyridinyl)ethyl]tetradecanamide]  6.15
11. CCCCCCCC/C=C\CCCCCCCCC(C)(C)C(=O)Nc1c(C)cccc1OC [(Z)-N-(2-Methoxy-6-methylphenyl)-2,2-dimethyl-11-eicosenamide]  6.17
12. CCCCCCCCCCCCC(C)C(=O)Nc1c(OCC)ncnc1OCC (centres unmarked) [N-(4,6-Diethoxy-5-pyrimidinyl)-2-methyltetradecanamide]  6.30
13. CCCCCCCCCCCCC(C)C(=O)Nc1c(OC)ncnc1OC (centres unmarked) [N-(4,6-dimethoxy-5-pyrimidinyl)-2-methyltetradecanamide]  6.40
14. CCCCCCCCCCCCC(CC)C(=O)Nc1c(OC)ncnc1OC (centres unmarked) [N-(4,6-Dimethoxy-5-pyrimidinyl)-2-ethyltetradecanamide]  6.59
15. CCCCCCCCCCC(C)(C)C(=O)Nc1c(C)cccc1OCC [N-(2-Ethoxy-6-methylphenyl)-2,2-dimethyl-dodecanamide]  6.64
16. CCCCCCCCCCC(C)(C)C(=O)Nc1c(OC)ncnc1OC [N-(4,6-Dimethoxy-5-pyrimidinyl)-2,2-dimethyldodecanamide]  6.64
17. CCCCCCCC/C=C\CCCCCCCCC(C)(C)C(=O)Nc1c(OC)cc(OC)cc1OC [(Z)-2,2-Dimethyl-N-(2,4,6-trimethoxyphenyl)-11-eicosenamide]  6.96
18. CCCCCCCCCCCCC(CC)C(=O)Nc1c(OC)cc(OC)cc1OC (centres unmarked) [2-Ethyl-N-(2,4,6-trimethoxyphenyl)tetradecanamide]  7.30
19. CCCCCCCC/C=C\CCCCCCC(C)C(=O)Nc1c(OC)cc(OC)cc1OC (centres unmarked) [(Z)-2-methyl-N-(2,4,6-trimethoxyphenyl)-9-octadecenamide]  7.47
20. CCCCCCCCCCC1(C(=O)Nc2c(OC)cc(OC)cc2OC)CCCC1 [1-Decyl-N-(2,4,6-trimethoxyphenyl)cyclopentanecarboxamide]  8.15

Tested on: serum cholesterol
Assay: cholesterol-fed rabbit test
Format: in vivo, male, New Zealand white rabbits
Settings: oral 50 mg/kg thirty minutes prior to each meal for seven days, serum cholesterol three hours after last meal
Source text: In the cholestrol-fed rabbit test, male, New Zealand white rabbits weighing approximately 1 kg were fed a normal diet 40 g per day of rabbit chow (Purina NO. 5321, Ralston Purina Co., 711 West Fuesser Road, Mascoutah, Ill., 62224, USA). After six days on this diet, the rabbits were fed 50 g per day for three days of a cholsterol-enriched diet consisting of one part of a cholesterol-containing chow (Purina Catalog No. 841206WLI, 0.25% cholesterol) and two parts of normal chow. Next, the rabbits were fed 60 g per day for four days of a cholsterol-enriched diet consisting of two parts of a cholesterol-containing chow (Purina Catalog No. 841206WLI, 0.25% cholesterol) and one part of normal chow.
After this meal adaptation and cholesterol loading period, the test compounds of this invention were administered to the test animals in oral doses of 50 mg/kg of body weight thirty minutes prior to each meal for seven days. Control animals were administered vehicle only.
The animals were sacrificed three hours after their last meal in the postabsorptive state. Serum cholesterol levels were determined for each animal, and the data appear in Table 2 expressed as percent change in serum cholesterol level compared to control.

In order of falling “Percent Reduction in Cholesterol, Rabbit (percent change in serum cholesterol level compared to control)” value:
1. CCCCCCCCCCCCC(C)C(=O)Nc1c(OC)ncnc1OC (centres unmarked) [N-(4,6-dimethoxy-5-pyrimidinyl)-2-methyltetradecanamide]  -29%
2. CCCCCCCCCCCCC(C)C(=O)Nc1c(OC)cc(OC)cc1OC (centres unmarked) [2-Methyl-N-(2,4,6-trimethoxyphenyl)tetradecanamide]  -45%
3. CCCCCCCCCCC(C)(C)C(=O)Nc1c(OC)cc(OC)cc1OC [2,2-Dimethyl-N-(2,4,6-trimethoxyphenyl)dodecanamide]  -67%

Tested on: total cholesterol
Assay: cholesterol-fed rat test
Format: in vivo, male, Sprague-Dawley rats
Settings: drug admixed in diet with 5.5% peanut oil, 1.5% cholesterol and 0.3% cholic acid, one week, nonfasted
Source text: In the cholesterol-fed rat test, male, Sprague-Dawley rats (approximately 200 g body weight) were randomly divided into groups and provided ad libitum a regular rat chow diet (Purina No. 5002) supplemented with 5.5% peanut oil, 1.5% cholesterol and 0.3% cholic acid, with or without drug admixed at the indicated levels (w/w). After one week, the animals (nonfasted) were etherized and blood was taken from the heart into EDTA (0.14% final concentration) to measure total cholesterol using the Abbott VP Analyzer.

In order of falling “Percent Reduction in Cholesterol, Rat” value:
1. CCCCCCCCCCC1(C(=O)Nc2c(OC)cc(OC)cc2OC)CCCC1 [1-Decyl-N-(2,4,6-trimethoxyphenyl)cyclopentanecarboxamide]  -52%
2. CCCCCCCCCCCCC(C)C(=O)Nc1c(OC)cc(OC)cc1OC (centres unmarked) [2-Methyl-N-(2,4,6-trimethoxyphenyl)tetradecanamide]  -52%
3. CCCCCCCCCCC(C)(C)C(=O)Nc1c(OC)cc(OC)cc1OC [2,2-Dimethyl-N-(2,4,6-trimethoxyphenyl)dodecanamide]  -54%
